Test results: patent US20110009335A1, “Anticancer Treatments” (priority 2008, published 2011)
Starred links: 1 amine or outer side, 2 acyl side, 3 side chain; linkers in the order of their positions; H or OH if unused. Positions of bridges follow the written chain, without caps; N, C: chain ends. Non-standard residues stand in square brackets, D forms with d. Residues, ends and D or L forms follow the SMILES beside them. *: point of attachment. X1 = CC[C@H](C)[C@@H](N[*:1])[C@@H](O)CC(=O)O[C@H](C(=O)[C@H](C)C(=O)[*:2])C(C)C; NMeY = CN[C@@H](Cc1ccc(O)cc1)C(=O)O; dNMeL = CN[C@H](CC(C)C)C(=O)O; Pyruvoyl = CC(=O)C(=O)*

Columns and labels:
[1] = test system: CAKI-1 human renal tumor xenograft; assay: Aplidine with sunitinib, CAKI-1 xenograft in athymic nude mice (Example 2); type: in vivo; conditions: doses and schedules tested
Method: (§1) Female athymic nude mice (Harlan Sprague Dawley, Madison, Wis.) were utilized for all experiments. Mice were implanted with tumor fragments or a cell suspension when mice were 5 weeks of age. Animals were housed in ventilated rack caging, 5 mice per cage, with food and water ad libitum. The mice were acclimated for 1 week prior to being implanted with tumor fragments or cell suspensions.
Cells from in vitro passage 4-20 were implanted SC into study mice: 5×10^6 cells/mouse in 0.2 ml 50% Matrigel/50% medium without antibiotics or serum, using a 23 G needle and 1 cc syringe. Bacterial cultures were performed on aliquots of the cells prepared for implantation.
(§2) Tumor measurements were determined as disclosed in Example 1.
Body weights were recorded on treatment days and when tumor sizes were measured. In those days wherein the two drugs were administered the same day, the combination therapy groups were treated by co-administering the two drugs at the same time, with no attempt to sequence the treatments. […]
(§3) Tumor size measurements were recorded twice weekly from the treatment initiation until the termination of the study.
(§4) Mean, standard deviation and standard error of the mean were determined for tumor volume for all animal groups at all assessments. […]

ALL-MOLT4 cells = conditions: mechanistic studies; cited from earlier work
[2] = test system: AML and ALL samples from pediatric patients; conditions: de novo or relapsed ALL and AML; cited from earlier work
[3] = test system: CAKI-1 human renal tumor xenograft; assay: Aplidine with sorafenib, CAKI-1 xenograft in athymic nude mice (Example 1); type: in vivo
Method: as §1
(§5) Tumor measurements were determined by using Vernier calipers. The formula to calculate volume for a prolate ellipsoid was used to estimate tumor volume (mm^3) from 2-dimensional tumor measurements: Tumor volume (mm^3)=[L×W^2]÷2, where L is the length and it is the longest diameter in mm, and W is the width and it is the shortest diameter in mm of a tumor. Assuming unit density, volume was converted to weight (i.e., 1 mm^3=1 mg).
(§6) Body weights were recorded on treatment days and when tumor sizes were measured. In those days wherein the two drugs were administered the same day, the combination therapy groups were treated by co-administering the two drugs at the same time, with no attempt to sequence the treatments.
(§7) Aplidine was provided in the form of vials of lyophilized aplidine powder which was reconstituted in Cremophor EL/ethanol/water (CEW) 15/15/70 to a concentration of 0.5 mg/ml. Then the aplidine solution in CEW was diluted in 0.9% Saline to the dosing formulation concentrations, being the final proportion of CEW of 0.18/0.18/0.84.
as §3
(§8) Mean, standard deviation and standard error of the mean were determined for tumor volume for all animal groups at all assessments. Student's t test was performed on tumor volumes at each measurement day, including at the end of the study, to determine whether there were any statistically significant differences between combination treatment groups and single monotherapy treatment groups.
(§9) Determine the % of tumor growth inhibition, as 100−% T/C, for each of the drugs administered as monotherapy at the doses used in the combinations. % T/C was obtained by comparing the mean tumor weight in the treatment groups (T) to the mean tumor weight in the control group (C) (T/C×100%). • 2. The two scores were added together to determine the “expected response” if each agent produced the same response as it did when administered as monotherapy. • 3. This “expected response” was subtracted from the % of tumor growth inhibition determined for the combination therapy group: • a. A negative number meant that the effect of combining the two drugs was less than additive. • b. If the resulting number was close to zero, the effect of combining the two drugs was determined as additive. • c.

[4] = test system: A498 human renal tumor xenograft; assay: Aplidine with sunitinib, A498 xenograft in athymic nude mice (Example 2); type: in vivo; conditions: doses tested; sunitinib 40 mg/kg
Method: as §1, §2, §6
as §7, with “The” for “Then the”, “0.18/0.18/0.84. […]” for “0.18/0.18/0.84.”
as §3, §4

[5] = test system: MRI-H-121 human renal tumor xenograft; assay: Aplidine with sunitinib, MRI-H-121 xenograft in athymic nude mice (Example 2); type: in vivo; conditions: doses and schedules tested
Method: as §1, §2, §6
as §7, with “The” for “Then the”, “0.18/0.18/0.84. […]” for “0.18/0.18/0.84.”
as §3, §4

[6] = test system: A498 human renal tumor xenograft; assay: Aplidine with sorafenib, A498 xenograft in athymic nude mice (Example 1); type: in vivo
Method: as §1
A498 cells were grown in MEM, 2 mM L-glutamine and 10% FBS. Cells from in vitro passage 4-20 were implanted SC into study mice: 5×10^6 cells/mouse in 0.2 ml 50% Matrigel/50% medium without antibiotics or serum, using a 23 G needle and 1 cc syringe. Matrigel is a biological extracellular matrix that is liquid at 4° C. and solid at 37° C., and it promotes tumor growth by maintaining the cells in close association in a localized area. Bacterial cultures were performed on aliquots of the cells prepared for implantation.
as §5, §6, §7, §3, §8, §9

[7] = aplidine 0.040 and/or sorafenib 30 mg/kg/day
[8] = aplidine 0.060 and/or sorafenib 60 mg/kg/day

CC[C@H](C)[C@H]1NC(=O)[C@@H](NC(=O)[C@@H](CC(C)C)N(C)C(=O)[C@@H]2CCCN2C(=O)C(C)=O)[C@@H](C)OC(=O)[C@H](Cc2ccc(OC)cc2)N(C)C(=O)[C@@H]2CCCN2C(=O)[C@H](CC(C)C)NC(=O)[C@@H](C)C(=O)[C@H](C(C)C)OC(=O)C[C@@H]1O [aplidine, dehydrodidemnin B] (Pyruvoyl-P[dNMeL]T[X1]LP[NMeY](Me); ester 3-C)
antitumor activity as single agent (monotherapy) [1]: inactive | VEGF secretion (ALL-MOLT4 cells): block VEGF secretion | concentration with in vitro cytotoxic activity [2]: 5 nM | % T/C on day 7 [3, 7]: 115.8% | % T/C on day 9 [3, 7]: 124.7% | % T/C on day 13 [3, 7]: 101.5% | % T/C on day 16 [3, 7]: 108.2% | % T/C on day 21 [3, 7]: 104.9% | % T/C on day 23 [3, 7]: 104.3% | % T/C on day 28 [3, 7]: 104.6% | % T/C on day 31 [3, 7]: 96.8% | % T/C on day 34 [3, 7]: 100.9% | % T/C on day 37 [3, 7]: 108.7% | % T/C on day 41 [3, 7]: 109.5% | % T/C on day 44 [3, 7]: 108.4% | % T/C on day 49 [3, 7]: 104.4% | % T/C on day 7 [3, 8]: 103.9% | % T/C on day 9 [3, 8]: 113.8% | % T/C on day 13 [3, 8]: 101.6% | % T/C on day 16 [3, 8]: 105.7% | % T/C on day 21 [3, 8]: 108.5% | % T/C on day 23 [3, 8]: 109.0% | % T/C on day 28 [3, 8]: 107.5% | % T/C on day 31 [3, 8]: 100.3% | % T/C on day 34 [3, 8]: 101.8% | % T/C on day 37 [3, 8]: 107.7% | % T/C on day 41 [3, 8]: 103.1% | % T/C on day 44 [3, 8]: 99.4% | % T/C on day 49 [3, 8]: 96.5% | antitumor activity as single agent (monotherapy) ([3]; doses and schedules tested): inactive | antitumor activity as single agent (monotherapy) [4]: no effect | antitumor activity as single agent (monotherapy) [5]: refractory | % T/C on day 26 [6, 7]: 100.8% | % T/C on day 29 [6, 7]: 84.6% | % T/C on day 33 [6, 7]: 78.7% | % T/C on day 36 [6, 7]: 74.8% | % T/C on day 40 [6, 7]: 90.2% | % T/C on day 43 [6, 7]: 65.1% | % T/C on day 47 [6, 7]: 89.8% | % T/C on day 50 [6, 7]: 71.5% | % T/C on day 54 [6, 7]: 86.7% | % T/C on day 61 [6, 7]: 89.5% | % T/C on day 26 [6, 8]: 96.8% | % T/C on day 29 [6, 8]: 72.3% | % T/C on day 33 [6, 8]: 71.0% | % T/C on day 36 [6, 8]: 77.0% | % T/C on day 40 [6, 8]: 85.3% | % T/C on day 43 [6, 8]: 78.6% | % T/C on day 47 [6, 8]: 86.5% | % T/C on day 50 [6, 8]: 82.6% | % T/C on day 54 [6, 8]: 90.9% | % T/C on day 61 [6, 8]: 87.8% | antitumor activity as single agent (monotherapy) ([6]; doses and schedules tested): did not reach the NCI criteria for activity

CNC(=O)c1cc(Oc2ccc(NC(=O)Nc3ccc(Cl)c(C(F)(F)F)c3)cc2)ccn1 [sorafenib]
% T/C on day 7 [3, 7]: 116.6% | % T/C on day 9 [3, 7]: 130.2% | % T/C on day 13 [3, 7]: 105.4% | % T/C on day 21 [3, 7]: 113.0% | % T/C on day 23 [3, 7]: 117.1% | % T/C on day 28 [3, 7]: 90.3% | % T/C on day 31 [3, 7]: 84.0% | % T/C on day 34 [3, 7]: 86.0% | % T/C on day 37 [3, 7]: 92.8% | % T/C on day 41 [3, 7]: 98.0% | % T/C on day 44 [3, 7]: 105.8% | % T/C on day 49 [3, 7]: 102.8% | % T/C on day 7 [3, 8]: 100.6% | % T/C on day 9 [3, 8]: 128.9% | % T/C on day 13 [3, 8]: 104.5% | % T/C on day 21 [3, 8]: 121.2% | % T/C on day 23 [3, 8]: 116.6% | % T/C on day 28 [3, 8]: 110.5% | % T/C on day 31 [3, 8]: 105.2% | % T/C on day 34 [3, 8]: 110.2% | % T/C on day 37 [3, 8]: 119.5% | % T/C on day 41 [3, 8]: 120.5% | % T/C on day 26 [6, 7]: 97.0% | % T/C on day 29 [6, 7]: 97.4% | % T/C on day 33 [6, 7]: 76.6% | % T/C on day 36 [6, 7]: 84.2% | % T/C on day 40 [6, 7]: 98.7% | % T/C on day 43 [6, 7]: 70.1% | % T/C on day 47 [6, 7]: 91.2% | % T/C on day 50 [6, 7]: 85.9% | % T/C on day 54 [6, 7]: 105.9% | % T/C on day 61 [6, 7]: 89.6% | % T/C on day 26 [6, 8]: 97.4% | % T/C on day 29 [6, 8]: 87.8% | % T/C on day 33 [6, 8]: 80.2% | % T/C on day 36 [6, 8]: 68.6% | % T/C on day 40 [6, 8]: 82.9% | % T/C on day 43 [6, 8]: 51.4% | % T/C on day 47 [6, 8]: 74.9% | % T/C on day 50 [6, 8]: 71.1% | % T/C on day 54 [6, 8]: 78.7% | % T/C on day 61 [6, 8]: 81.3%
